In patent publication US20120035206A1, “PREPARATION AND APPLICATION OF NOVEL ANTIBACTERIAL AND ANTICANCER COMPOUNDS AND THEIR DERIVATIVES” (priority 2009, published 2012):
In brackets after ≈: the same amount, converted by molar mass.

Experiments:
Assay type in all cases: cell-based
A. niger = test: In vitro antibacterial (antifungal) test, two-fold dilution MIC; conditions: Aspergillus niger, RPMI 1640, culture 2-7 days
C. Krusei = test: as above; conditions: Pichia kudriavzevii, RPMI 1640, culture 2-7 days
C. albicans = test: as above; conditions: Candida albicans, read-out: MIC C. albicas
C. glabrata = test: as above; conditions: Nakaseomyces glabratus, RPMI 1640, culture 2-7 days
C. neoformans = test: as above; conditions: Cryptococcus neoformans, RPMI 1640, culture 2-7 days
C. parapsilosis = test: as above; conditions: Lodderomyces parapsilosis, RPMI 1640, culture 2-7 days
C. tropicalis = test: as above; conditions: Candida tropicalis, RPMI 1640, culture 2-7 days
E. floccosum = test: as above; conditions: Epidermophyton floccosum, RPMI 1640, culture 2-7 days
M. gypseum = test: as above; conditions: Nannizzia gypsea, RPMI 1640, culture 2-7 days
S. schenekn = test: as above; conditions: RPMI 1640, culture 2-7 days
[1] = system: Fusarium oxysporum vasinfectum; test: as above; conditions: RPMI 1640, culture 2-7 days
Setosphaeria turcica = test: as above; conditions: Exserohilum turcicum, RPMI 1640, culture 2-7 days
Terchoderma = test: as above; conditions: Trichoderma, RPMI 1640, culture 2-7 days
gibberella = test: as above; conditions: RPMI 1640, culture 2-7 days
A375 = test: In vitro anticancer MTT experiment; conditions: Homo sapiens, A-375, concentration 5 ug/ml, 48 h or 72 h, read-out: inhibition ratio A375
Method in brief: (§1)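 For this screen, trypsinised log-phase cells were plated and pre-incubated 12 h before receiving compound for 48 h or 72 h; MTT was then added for 4 h and formazan dissolved in DMSO. Percent inhibition at 5 ug/ml was derived from 570 nm absorbance relative to untreated cells and blank medium.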

AS24391 = test: In vitro anticancer MTT experiment; conditions: concentration 5 ug/ml, 48 h or 72 h, read-out: inhibition ratio AS24391
Method in brief: as §1

B01092 = test: In vitro anticancer MTT experiment; conditions: concentration 5 ug/ml, 48 h or 72 h, read-out: inhibition ratio B01092
Method in brief: as §1

CRL-1435PC-3 = test: In vitro anticancer MTT experiment; conditions: concentration 5 ug/ml, 48 h or 72 h, read-out: inhibition ratio CRL-1435PC-3
Method in brief: as §1

CRL-1469PANC-1 = test: In vitro anticancer MTT experiment; conditions: concentration 5 ug/ml, 48 h or 72 h, read-out: inhibition ratio CRL-1469PANC-1
Method in brief: as §1

CRL-2233SNU-398 = test: In vitro anticancer MTT experiment; conditions: concentration 5 ug/ml, 48 h or 72 h, read-out: inhibition ratio CRL-2233SNU-398
Method in brief: as §1

FTC 133 = test: In vitro anticancer MTT experiment; conditions: Homo sapiens, concentration 5 ug/ml, 48 h or 72 h, read-out: inhibition ratio FTC 133
Method in brief: as §1

HTB-131MDA-MB-453 = test: In vitro anticancer MTT experiment; conditions: concentration 5 ug/ml, 48 h or 72 h, read-out: inhibition ratio HTB-131MDA-MB-453
Method in brief: as §1

HTB-38HT-29 = test: In vitro anticancer MTT experiment; conditions: concentration 5 ug/ml, 48 h or 72 h, read-out: inhibition ratio HTB-38HT-29
Method in brief: as §1

HTB-94 = test: In vitro anticancer MTT experiment; conditions: concentration 5 ug/ml, 48 h or 72 h, read-out: inhibition ratio HTB-94
Method in brief: as §1

HTB-95637 = test: In vitro anticancer MTT experiment; conditions: concentration 5 ug/ml, 48 h or 72 h, read-out: inhibition ratio HTB-95637
Method in brief: as §1

L1210 = test: In vitro anticancer MTT experiment; conditions: Mus musculus, concentration 5 ug/ml, 48 h or 72 h, read-out: inhibition ratio L1210
Method in brief: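 Inhibition ratios were measured at a compound concentration of 5 ug/ml. Log-phase cells grown in RPMI 1640/10% fetal calf serum were treated for 48 h or 72 h, and viability was assessed by MTT reduction with absorbance read at 570 nm.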

SGC7901 = test: In vitro anticancer MTT experiment; conditions: Homo sapiens, SGC-7901, concentration 5 ug/ml, 48 h or 72 h, read-out: inhibition ratio SGC7901
Method in brief: as §1

L428 = test: In vitro anticancer MTT experiment; conditions: Homo sapiens, L-428, concentration 5 ug/ml, 48 h or 72 h, read-out: inhibition ratio L428
Method in brief: as §1

| Structure (SMILES) | MIC (C. Krusei) [µg/mL] | MIC (C. albicans) [µg/mL] | MIC (C. glabrata) [µg/mL] | MIC (C. neoformans) [µg/mL] | MIC (C. parapsilosis) [µg/mL] | MIC (C. tropicalis) [µg/mL] | MIC (E. floccosum) [µg/mL] | MIC (M. gypseum) [µg/mL] | MIC (S. schenekn) [µg/mL] | MIC [1] [µg/mL] | MIC (Setosphaeria turcica) [µg/mL] | MIC (Terchoderma) [µg/mL] | MIC (gibberella) [µg/mL] | inhibition at 5 µg/mL (AS24391) [%] | inhibition at 5 µg/mL (B01092) [%] | inhibition at 5 µg/mL (CRL-1435PC-3) [%] | inhibition at 5 µg/mL (CRL-1469PANC-1) [%] | inhibition at 5 µg/mL (CRL-2233SNU-398) [%] | inhibition at 5 µg/mL (HTB-131MDA-MB-453) [%] | inhibition at 5 µg/mL (HTB-38HT-29) [%] | other results |
| --- | --- | --- | --- | --- | --- | --- | --- | --- | --- | --- | --- | --- | --- | --- | --- | --- | --- | --- | --- | --- | --- |
| Cc1ccc2c(c1)C(=O)CCS2 [Compound 1] | 32 (≈ 180 µM) | 64 (≈ 359 µM) | 64 (≈ 359 µM) | 64 (≈ 359 µM) | 64 (≈ 359 µM) | 32 (≈ 180 µM) | 32 (≈ 180 µM) | 64 (≈ 359 µM) | 32 (≈ 180 µM) |  |  |  |  |  |  |  |  |  |  |  | MIC (A. niger): 32 µg/mL (≈ 180 µM) |
| Cc1cc2c(cc1F)SC/C(=C\Cl)C2=O [Compound 6, (Z)-3-(chloromethylene)-7-fluoro-6-methylthiochroman-4-one] | 8 (≈ 33 µM) | 32 (≈ 132 µM) | 8 (≈ 33 µM) | 4 (≈ 16.5 µM) | 4 (≈ 16.5 µM) | 16 (≈ 65.9 µM) | 32 (≈ 132 µM) | 4 (≈ 16.5 µM) | 16 (≈ 65.9 µM) | 16 (≈ 65.9 µM) | 4 (≈ 16.5 µM) | 16 (≈ 65.9 µM) | 8 (≈ 33 µM) | 59.8 | 57.9 | 56.7 | 53.8 | 60.1 | 60.7 | 44.2 | inhibition at 5 µg/mL (A375): 65.8%; inhibition at 5 µg/mL (FTC 133): 59.3%; inhibition at 5 µg/mL (HTB-94): 45.4%; inhibition at 5 µg/mL (HTB-95637): 48%; inhibition at 5 µg/mL (L1210): 76.9%; inhibition at 5 µg/mL (SGC7901): 45.3% |
| O=C1/C(=C/Br)CSc2ccc(Cl)cc21 [Compound 10, (Z)-3-(bromomethylene)-6-chlorothiochroman-4-one] | 16 (≈ 55.3 µM) | 64 (≈ 221 µM) | 64 (≈ 221 µM) | 4 (≈ 13.8 µM) | 8 (≈ 27.6 µM) | 32 (≈ 111 µM) | 64 (≈ 221 µM) | 64 (≈ 221 µM) | 64 (≈ 221 µM) | 64 (≈ 221 µM) | 32 (≈ 111 µM) | 16 (≈ 55.3 µM) | 32 (≈ 111 µM) | 56.7 | 69 | 46.6 | 45.1 | 45.6 | 53.5 | 54.7 | inhibition at 5 µg/mL (FTC 133): 45.6%; inhibition at 5 µg/mL (HTB-94): 46.8%; inhibition at 5 µg/mL (HTB-95637): 40.8%; inhibition at 5 µg/mL (L1210): 84.4%; inhibition at 5 µg/mL (L428): 50.6%; inhibition at 5 µg/mL (SGC7901): 56.5% |
| O=C1/C(=C/Br)CSc2ccc(F)cc21 [Compound 11, (Z)-3-(bromomethylene)-6-fluorothiochroman-4-one] | 16 (≈ 58.6 µM) | 64 (≈ 234 µM) | 8 (≈ 29.3 µM) | 32 (≈ 117 µM) | 32 (≈ 117 µM) | 64 (≈ 234 µM) | 32 (≈ 117 µM) | 64 (≈ 234 µM) | 32 (≈ 117 µM) | 32 (≈ 117 µM) | 32 (≈ 117 µM) | 16 (≈ 58.6 µM) | 16 (≈ 58.6 µM) | 46.9 | 45.5 | 47.9 | 39.4 | 60.1 | 45.6 | 45.5 | inhibition at 5 µg/mL (A375): 47%; inhibition at 5 µg/mL (FTC 133): 56.7%; inhibition at 5 µg/mL (HTB-94): 36.7%; inhibition at 5 µg/mL (HTB-95637): 49.5%; inhibition at 5 µg/mL (L1210): 86%; inhibition at 5 µg/mL (L428): 50.3%; inhibition at 5 µg/mL (SGC7901): 59% |
| O=C1/C(=C\Cl)CSc2ccc(Cl)cc21 [Compound 21, (E)-6-chloro-3-(chloromethylene)thiochroman-4-one] | 8 (≈ 32.6 µM) | 8 (≈ 32.6 µM) | 8 (≈ 32.6 µM) | 4 (≈ 16.3 µM) | 8 (≈ 32.6 µM) | 16 (≈ 65.3 µM) | 16 (≈ 65.3 µM) | 32 (≈ 131 µM) | 16 (≈ 65.3 µM) | 32 (≈ 131 µM) | 32 (≈ 131 µM) | 4 (≈ 16.3 µM) | 8 (≈ 32.6 µM) | 60.3 | 35.9 | 54.6 | 63 | 46.7 | 55.6 | 54.3 | inhibition at 5 µg/mL (A375): 56.9%; inhibition at 5 µg/mL (FTC 133): 55.9%; inhibition at 5 µg/mL (HTB-95637): 54.3%; inhibition at 5 µg/mL (L1210): 78.4%; inhibition at 5 µg/mL (L428): 52.3%; inhibition at 5 µg/mL (SGC7901): 50% |
| O=C1/C(=C\Cl)CSc2ccc(F)cc21 [Compound 22, (E)-3-(chloromethylene)-6-fluorothiochroman-4-one] | 16 (≈ 70 µM) | 4 (≈ 17.5 µM) | 8 (≈ 35 µM) | 16 (≈ 70 µM) | 16 (≈ 70 µM) | 32 (≈ 140 µM) | 16 (≈ 70 µM) | 16 (≈ 70 µM) | 8 (≈ 35 µM) | 16 (≈ 70 µM) | 8 (≈ 35 µM) | 32 (≈ 140 µM) | 4 (≈ 17.5 µM) | 43.5 | 43.6 | 30.5 | 33.3 | 49 | 55.9 | 47.8 | inhibition at 5 µg/mL (A375): 56.7%; inhibition at 5 µg/mL (HTB-94): 51%; inhibition at 5 µg/mL (HTB-95637): 36.9%; inhibition at 5 µg/mL (L1210): 86.7%; inhibition at 5 µg/mL (L428): 53.9%; inhibition at 5 µg/mL (SGC7901): 60.7% |
